Consider 46 molecules from ChEMBL document CHEMBL5614415, “Recent advances and challenges of revolutionizing drug-resistant tuberculosis treatment” (Eur J Med Chem, 2024).

≈ marks a conversion by molar mass, not a printed value. Some results are limits rather than exact numbers.

Experiment [1] has as its system Mycobacterium tuberculosis. The experiment in a line: Antimycobacterial activity against Mycobacterium tuberculosis H37Rv assessed as reduction in bacterial cell growth by resazurin reduction method. Format: functional.
The test system of experiment [2] is Mycobacterium tuberculosis. The experiment in a line: Antibacterial activity against Mycobacterium tuberculosis H37Rv. Format: functional.
Experiment [3] has as its system Mycobacterium tuberculosis. Put plainly: Antimycobacterial activity against Mycobacterium tuberculosis assessed as bacterial growth inhibition. Format: functional.
The subject of another experiment is Staphylococcus aureus. Put plainly: Antibacterial activity against Staphylococcus aureus assessed as reduction in microbial growth by CLSI protocol based broth micro-dilution method. Format: functional.
Experiment [4] deals with Mycobacterium tuberculosis. The experiment in a line: Antimycobacterial activity against Mycobacterium tuberculosis H37Rv ATCC 27294 assessed as reduction in bacterial cell growth by resazurin reduction method. Format: functional.
The test system of experiment [5] is Mycobacterium tuberculosis. The experiment in a line: Antibacterial activity against Mycobacterium tuberculosis H37Rv assessed as bacterial growth inhibition by CLSI broth microdilution method. The format is functional.
Experiment [6] relates to Mycobacterium tuberculosis. The experiment in a line: Antimycobacterial activity against Mycobacterium tuberculosis […] assessed as reduction in bacterial growth. The format is functional.
For experiment [7], the system named is Mycobacterium tuberculosis. The experiment in a line: Antibacterial activity against Mycobacterium tuberculosis ATCC 35801 assessed as inhibition of bacterial growth incubated for 7 days by resazurin microtiter assay. Format: functional. The conditions noted are these: ATCC 35801, 168 h, time 7 day.
Experiment [8] has as its system Mycobacterium tuberculosis. The experiment in a line: Antimycobacterial activity against Mycobacterium tuberculosis H37Rv ATCC 27294 assessed as reduction in bacterial cell growth. Format: functional.
The target of a further experiment is Cytochrome P450 2C9 (Homo sapiens, UniProt P11712). Put plainly: Inhibition of CYP2C9 (unknown origin). Format: ADME.
Sequence of Cytochrome P450 2C9 (P11712 whole entry): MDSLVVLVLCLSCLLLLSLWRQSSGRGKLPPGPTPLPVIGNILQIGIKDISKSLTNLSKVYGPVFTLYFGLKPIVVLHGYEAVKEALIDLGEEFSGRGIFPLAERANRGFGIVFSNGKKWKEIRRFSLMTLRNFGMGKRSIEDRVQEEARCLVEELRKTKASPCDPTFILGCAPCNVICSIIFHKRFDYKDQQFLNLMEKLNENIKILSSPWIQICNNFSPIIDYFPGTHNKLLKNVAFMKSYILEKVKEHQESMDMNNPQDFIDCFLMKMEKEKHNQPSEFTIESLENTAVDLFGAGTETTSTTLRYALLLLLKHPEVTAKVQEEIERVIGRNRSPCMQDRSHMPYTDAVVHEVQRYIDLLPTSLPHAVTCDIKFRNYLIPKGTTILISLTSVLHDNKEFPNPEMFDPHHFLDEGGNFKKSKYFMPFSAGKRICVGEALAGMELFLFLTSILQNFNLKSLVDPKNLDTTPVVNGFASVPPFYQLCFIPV
Experiment [9] deals with Mycobacterium tuberculosis. The experiment in a line: Antimicrobial activity against Mycobacterium tuberculosis H37Rv ATCC 27294 assessed as inhibition of bacterial growth incubated for […] by broth dilution method. The format is functional. The conditions noted are these: time lower 18 hrs.
Experiment [10] concerns Mycobacterium tuberculosis. The experiment in a line: Antibacterial activity against Mycobacterium tuberculosis H37Rv assessed as reduction in bacterial growth measured after 7 days by broth micro-dilution method. The conditions noted are these: 168 h, time 7 day. The format is functional.
The test system of experiment [11] is Mycobacterium tuberculosis. The experiment in a line: Antimycobacterial activity against Mycobacterium tuberculosis. The format is functional.
Experiment [12] deals with Mycobacterium tuberculosis. Put plainly: Antimycobacterial activity against Mycobacterium tuberculosis assessed as reduction in bacterial growth. Format: functional.
Another experiment deals with Mycobacterium avium. Put plainly: Antimycobacterial activity against Mycobacterium avium assessed as bacterial growth inhibtion. Format: functional.
Experiment [13] deals with Mycobacterium tuberculosis. The experiment in a line: Antitubercular activity against Mycobacterium tuberculosis H37Ra assessed as inhibition of bacterial growth incubated for 7 days by Microdilution Alamar Blue assay. Format: functional. The conditions noted are these: 168 h, time 7 day.
Experiment [14] deals with Mycobacterium tuberculosis. Put plainly: Antibacterial activity against wild type Mycobacterium tuberculosis H37Rv infected in BALB/c mouse assessed as log reduction in colony forming units at 20 mg/kg. The format is functional.
The subject of experiment [15] is Mycolicibacterium smegmatis. Put plainly: Antimicrobial activity against Mycobacterium smegmatis ATCC 700084 assessed as bacterial growth inhibition. The format is functional.
The next experiment concerns Salmonella typhimurium. Put plainly: Antibacterial activity against Salmonella typhimurium DT104 assessed as inhibition of bacterial growth incubated for 18 hrs by CLSI protocol based microbroth dilution method. The format is functional, Salmonella enterica subsp. enterica serovar Typhimurium. The conditions noted are these: Salmonella enterica.
Experiment [16] has as its system Mycolicibacterium smegmatis. Put plainly: Antimycobacterial activity against Mycobacterium smegmatis mc2 155 assessed as reduction in bacterial cell growth by resazurin reduction method. Format: functional.
In experiment [17] the test system is Mycobacterium tuberculosis. The experiment in a line: Antimycobacterial activity against Mycobacterium tuberculosis H37Rv assessed as reduction in bacterial growth after 7 days by resazurin based fluorescence assay. Format: functional. The conditions noted are these: 168 h, time 7 day.

For `CC(=O)N1/C(=C/c2ccc(-c3ccsc3)cc2)C(=O)c2ccccc21`, the MIC99 in experiment [1] stood at 0.16 µg/mL (≈ 0.463 µM).

`O=[N+]([O-])c1cn2c(n1)OC[C@@H](OCc1ccc(-c3ccc(C(F)(F)F)cc3)nc1)C2`: the MIC50 in experiment [2] was below 0.015 µg/mL.

As to `CC(=O)NC[C@H]1CN(c2ccc(N3CCOCC3)c(F)c2)C(=O)O1` [LINEZOLID], the MIC50 amounted to 0.3 µg/mL (≈ 0.889 µM) in experiment [3] and 0.3 µg/mL in the experiment on Staphylococcus aureus.

With `CCN(CC)CCOc1c(C(=O)OC)c2c3c(oc2c2ccccc12)C(=O)c1ccccc1C3=O`, the MIC50 in experiment [4] was 0.19 µg/mL (≈ 0.403 µM).

On to `CC(=O)N1/C(=C/c2ccc(Oc3ccc(Cl)cc3)cc2)C(=O)c2cc(Cl)ccc21`, for which the MIC99 in experiment [1] turned out to be 0.13 µg/mL (≈ 0.306 µM).

For the molecule `CC1(C)CCC(NC(=O)c2cc3c(Cl)cc(Cl)cc3[nH]2)CC1`, in [5], the MIC50 was 0.005 µg/mL (≈ 0.0147 µM).

Regarding `CCCCCCCCCC(=O)C[C@@H]1[C@H](OC)C([C@@H](O[C@H]2OC(C(=O)N[C@H]3CCC[C@@H](C)NC3=O)=C[C@H](O)[C@@H]2O)C(N)=O)O[C@H]1n1ccc(=O)[nH]c1=O` (some centres not stated), the MIC50 in experiment [6] stood at 1 µg/mL (≈ 1.36 µM).

For `CCNC(=O)Nc1nc2cc(-c3cnc(C(C)(C)O)nc3)c(F)c([C@H]3CCCO3)c2[nH]1`, the MIC50 in [7] came out at 0.03 µg/mL (≈ 0.07 µM).

For `CN1CCN(c2ccc(N3C[C@H](CO)OC3=O)cc2F)C=N1` [DELPAZOLID], the MIC50 in [8] amounted to 0.5 µg/mL (≈ 1.62 µM); with Staphylococcus aureus it was 0.5 µg/mL.

At Cytochrome P450 2C9, `CCOC(=O)NC(=O)c1cc(F)sc1NC(=O)c1nc2ccccc2s1` registered a concentration for half-maximal inhibition (IC50) of 150 nM.

Consider `c1cc2cc(-c3ccc4cc(-c5ccc6oc(C7=NCCN7)cc6c5)[nH]c4c3)[nH]c2cc1C1=NCCN1`, for which the MIC50 in experiment [9] stood at 0.02 µg/mL (≈ 0.0413 µM).

As to `OC1CCN(CC2CCN(Cc3ccccc3)CC2)CC1`, in [10], the MIC90 came out at 6.2 µg/mL (≈ 21.5 µM).

As to `c1cc2cc(-c3ccc4cc(C5=NCCN5)[nH]c4c3)[nH]c2cc1C1=NCCN1`, in experiment [9], the MIC50 worked out at 0.08 µg/mL (≈ 0.217 µM).

At Cytochrome P450 2C9, `CCOC(=O)NC(=O)c1ccsc1NC(=O)c1ccn2cnnc2c1` registered an IC50 above 10000 nM.

`CN[C@@H]1[C@H](O)[C@H](NC)[C@H]2O[C@@]3(O)[C@H](NC(=O)Cc4ccc(F)cn4)C[C@@H](C)C[C@H]3O[C@@H]2[C@H]1O` gave an MIC50 in experiment [11] of 0.8 µg/mL (≈ 1.71 µM).

Consider `c1cc2cc(-c3ccc(-c4cc5ccc(C6=NCCN6)cc5[nH]4)cc3)[nH]c2cc1C1=NCCN1`, for which the MIC50 in experiment [9] came out at 0.04 µg/mL (≈ 0.09 µM).

Consider `CC(=O)N1/C(=C/c2ccc(Oc3ccc(Cl)cc3)cc2)C(=O)c2ccccc21`, for which, in [1], the MIC99 worked out at 0.18 µg/mL (≈ 0.462 µM).

Take `COc1nc2ccc(Br)cc2cc1[C@@H](c1ccccc1)[C@@](O)(CCN(C)C)c1cccc2ccccc12` [BEDAQUILINE]: the MIC50 (in [12]; in the experiment with Mycobacterium avium) was 0.01 µg/mL (≈ 0.018 µM) each time.

For `OC1CCN(CC2CCN(CC34CC5CC(CC(C5)C3)C4)CC2)CC1`, the MIC90 in experiment [10] stood at 4 µg/mL (≈ 11.5 µM).

Turning to `CC(=O)N1/C(=C/c2ccc(Br)cc2)C(=O)c2ccccc21`, the MIC99 in [1] worked out at 0.42 µg/mL (≈ 1.23 µM).

For `COC(=O)c1ccsc1NC(=O)C1CCCN1` (configuration not stated), the MIC50 in [13] amounted to 0.8 µg/mL (≈ 3.15 µM).

As for `COc1cc([C@](O)(CCN(C)C)[C@@H](c2cc3cc(Br)ccc3nc2OC)c2cccc(OC)c2F)cc(OC)n1` [TBAJ-587], in [14], the “log(activity)” value was found to be 4.5. For the same molecule, the values for the MIC50 (in experiment [15]; in the experiment on Mycobacterium avium) were below 0.02 µg/mL and 0.006 µg/mL (≈ 0.00976 µM), respectively.

In the case of `COc1c(N2CC3(CC3)[C@@](C)(N)C2)c(F)cc2c(=O)c(C(=O)O)cn(C3C[C@H]3F)c12` (some centres not stated), the MIC90 in the experiment on Salmonella typhimurium stood at 0.06 µg/mL (≈ 0.143 µM).

On to `CCOc1cc([C@](O)(CCN(C)C)[C@@H](c2cc3cc(Br)ccc3nc2OC)c2cccc(OC)c2F)cc(OC)n1`, for which the “log(activity)” value in [14] was 1.5.

As for `COc1ncnc(Cn2cc(C(=O)NCCO)c3ncc(C)cc32)c1C` [TBA-7371], in [6], the MIC50 came out at 0.28 µg/mL (≈ 0.788 µM).

Consider `CCc1nc2ccc(Cl)cn2c1C(=O)NCc1ccc(N2CCC(c3ccc(OC(F)(F)F)cc3)CC2)cc1` [TELACEBEC], for which the MIC90 in experiment [16] worked out at 0.0024 µg/mL (≈ 0.00431 µM).

As for `OC1CCN(C2CCN(Cc3ccccc3)CC2)CC1`, in [10], the MIC90 is above 10 µg/mL.

In turn, `O=C1CCc2c(OC[C@]3(O)CCN(c4c(F)cc(Cl)cc4F)C[C@H]3O)ccc(F)c2N1` [QUABODEPISTAT] gave an MIC50 in experiment [11] of 0.00024 µg/mL (≈ 0.000525 µM).

In the case of `CC(=O)N1/C(=C/c2ccc(-c3ccccc3)cc2)C(=O)c2ccccc21`, in experiment [1], the MIC99 worked out at 0.38 µg/mL (≈ 1.12 µM).

For the molecule `CC(=O)NC[C@H]1CN(c2ccc(N3CCSCC3)c(F)c2)C(=O)O1` [SUTEZOLID], the MIC50 in experiment [3] is 0.03 µg/mL (≈ 0.0849 µM); in the experiment with Staphylococcus aureus it was 0.03 µg/mL.

Turning to `CN[C@@H]1[C@H](O)[C@H](NC)[C@H]2O[C@@]3(O)[C@H](NC(=O)Cc4ccc(Cl)cn4)C[C@@H](C)C[C@H]3O[C@@H]2[C@H]1O`, the MIC50 in [11] is 1.6 µg/mL (≈ 3.3 µM).

Consider `OC1CCN(CC2CCC(CNCc3ccccc3)CC2)CC1` (configuration not stated), for which, in [10], the MIC90 was above 12 µg/mL.

For `O=C(Oc1ccccc1)c1ccsc1NC(=O)C1CCCN1` (configuration not stated), the MIC50 in experiment [13] was determined as 2.4 µg/mL (≈ 7.59 µM).

As to `COc1cc([C@](O)(CCN(C)C)[C@@H](c2cc3cc(Br)ccc3nc2OC)c2cc(OC)nc(OC)c2OC)cc(OC)n1` [TBAJ-876], the MIC50 with Mycobacterium avium was 5 µg/mL (≈ 7.6 µM).

On to `O=C(OCc1ccccc1)c1ccsc1NC(=O)C1CCCN1` (configuration not stated), for which the MIC50 in experiment [13] was found to be 1.3 µg/mL (≈ 3.93 µM).

As to `c1ccc(CC2CCN(CC3CCN(CC45CC6CC(CC(C6)C4)C5)CC3)CC2)cc1`, the MIC90 in [10] was 7 µg/mL (≈ 16.6 µM).

For `OCC1CCCN1CC1CCN(CC23CC4CC(CC(C4)C2)C3)CC1` (configuration not stated), in experiment [10], the MIC90 was above 10 µg/mL.

For the molecule `CC(=O)N1/C(=C/c2cccc(-c3ccccc3)c2)C(=O)c2ccccc21`, in experiment [1], the MIC99 was found to be 0.69 µg/mL (≈ 2.03 µM).

At Cytochrome P450 2C9, `CCOC(=O)NC(=O)c1ccsc1NC(=O)c1nc2cccnc2s1` registered an IC50 of 130 nM.

In the case of `O=[N+]([O-])c1cn2c(n1)OC[C@@H](OCc1ccc(OC(F)(F)F)cc1)C2` [PRETOMANID], the MIC50 in experiment [2] was determined as 0.015 µg/mL (≈ 0.0418 µM).

As for `CCCCc1ccc(NC(=O)C2=CCN(C)[C@@H]([C@H](O[C@@H]3O[C@H](CN)[C@@H](O)[C@H]3O)[C@H]3O[C@@H](n4ccc(=O)[nH]c4=O)[C@H](O)[C@@H]3O)C(=O)N2C)cc1`, in [6], the MIC50 was found to be 3.13 µg/mL (≈ 4.54 µM).

As to `C[C@]1(COc2ccc(N3CCC(Oc4ccc(OC(F)(F)F)cc4)CC3)cc2)Cn2cc([N+](=O)[O-])nc2O1` [DELAMANID], the MIC50 in experiment [2] was 0.006 µg/mL (≈ 0.0112 µM).

Consider `O=C(Nc1nc(-c2ccccn2)cs1)c1ccc(Cl)s1`, for which the MIC50 in experiment [17] is 0.25 µg/mL (≈ 0.777 µM).

In turn, `CC(C)=CCC/C(C)=C/CNCCNC1C2CC3CC(C2)CC1C3` (configuration not stated) [SQ109] yielded an MIC50 in experiment [11] of 0.12 µg/mL (≈ 0.363 µM).

Turning to `C(=C\c1cc2ccc(C3=NCCN3)cc2[nH]1)/c1cc2ccc(C3=NCCN3)cc2[nH]1`, in [9], the MIC50 is 0.03 µg/mL (≈ 0.076 µM).

Turning to `OC1CCN(C2CCN(CC34CC5CC(CC(C5)C3)C4)CC2)CC1`, the MIC90 in experiment [10] was above 10 µg/mL.
